The experiment has as its target T1, human zDHHC15 (Homo sapiens, UniProt Q96MV8).
T1 construct: expressed in transfected cells; host or cells: HEK293T
T1 sequence (Q96MV8 1-337): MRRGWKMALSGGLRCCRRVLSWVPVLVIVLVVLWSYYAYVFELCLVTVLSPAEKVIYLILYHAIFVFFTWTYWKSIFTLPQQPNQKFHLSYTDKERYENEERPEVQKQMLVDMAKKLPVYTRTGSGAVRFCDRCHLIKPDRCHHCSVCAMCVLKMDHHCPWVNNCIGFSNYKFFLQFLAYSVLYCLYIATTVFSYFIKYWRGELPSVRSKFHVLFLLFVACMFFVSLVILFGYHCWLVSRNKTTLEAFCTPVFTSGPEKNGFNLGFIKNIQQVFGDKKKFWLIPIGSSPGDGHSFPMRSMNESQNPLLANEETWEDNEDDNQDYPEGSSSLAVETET
As to the kind of experiment: PSD95-mCHERRY S-acylation in HEK293T cells co-expressing zDHHC15. The class given is cell-based. To be noted: 25 μM. An excerpt:
PSD95 (postsynaptic density protein 95) is a major S-acylated protein that has a critical role in the maturation of excitatory neurons and in synaptic plasticity ([46], [47]). PSD95 can be S-acylated by zDHHC2, zDHHC3, zDHHC7, and zDHHC15 ([6]). […] We therefore tested the effects of TTZ-1 and TTZ-2 on the S-acylation of PSD95 mediated by zDHHC2, zDHHC3, zDHHC7, and zDHHC15. […] In contrast, zDHHC3 and zDHHC7 activities toward PSD95 were unaffected by TTZ-1 and TTZ-2, mirroring the data obtained with GFP-SNAP25 as a substrate.
Figure 9 Activity of TTZ-1 and TTZ-2 against PSD95 S-acylation mediated by human zDHHC2, zDHHC3, zDHHC7, and zDHHC15 expressed in mammalian cells. HEK293T cells were transfected with a plasmid encoding PSD95-mCHERRY together with either a control plasmid pEF-BOS-HA (pEF) or a plasmid encoding either HA-tagged human zDHHC2 (zD2), zDHHC3 (zD3), zDHHC7 (zD7), or zDHHC15 (zD15) for 24 h. Cells were then preincubated for 4 h with TTZ-1 or TTZ-2 (25 μM final) or DMSO control before metabolic labeling with 100 μM C16:0-azide for 4 h. Cells were lysed, and proteins having incorporated C16:0-azide were labeled by click chemistry with an alkyne-IR800 dye. […] The data were quantified, and the graphs below each set of membranes show mean ± SEM of normalized S-acylation of PSD95-mCHERRY (click signal/RFP signal). […]

As for `CCCCCCCOc1ccc(C(=O)Nc2cccc3c2OC(c2nnn[nH]2)CN3)cc1` (centres unmarked) [TTZ-1, N-(2-(1H-Tetrazol-5-yl)-3,4-dihydro-2H-benzo[b][1,4]oxazin-8-yl)-4-(heptyloxy)benzamide], the “PSD95-mCHERRY S-acylation by zDHHC15” value was “significantly inhibited”.

On to `O=C(Nc1cccc2c1OC(c1nnn[nH]1)CN2)c1ccc(OCCCCc2ccccc2)cc1` (centres unmarked) [TTZ-2, N-(2-(1H-Tetrazol-5-yl)-3,4-dihydro-2H-benzo[b][1,4]oxazin-8-yl)-4-(4-phenylbutoxy)benzamide], for which the “PSD95-mCHERRY S-acylation by zDHHC15” value is given as “significantly inhibited”.

The values are drawn from PMC9558053, “Development of a novel high-throughput screen for the identification of new inhibitors of protein S-acylation” (The Journal of Biological Chemistry, 2022).
